Molecules are shown by their SMILES. Several values for one entry are separate records, joined by “and”; a condition that tells them apart may be missing. Equal values may be shown once. Read-outs that look alike come from different tables or passages of the source.

Experiment [1] has as its target periplasmic domain of Rsc1598 (Ralstonia pseudosolanacearum, UniProt Q8XZ08). Nature of the experiment: biochemical. It is filed as binding, R. pseudosolanacearum OE1-1.
For experiment [2], the system named is hrpB expression. It is filed as cell-based, R. pseudosolanacearum. Conditions: hrpB-lacZ resting cells, 25°C; for Induction of hrpB expression by organic acids: organic acid 0.1 mM, 20 h (Fig. 5); for Induction of hrpB expression by sugars: sugar 0.01%, 20 h (Fig. 6).
In experiment [3] the test system is hrpB expression. It is filed as cell-based, R. pseudosolanacearum. Conditions: malic acid 0.5 mM or sucrose 0.01%, quarter-strength M63 with 0.25% glucose, 28 °C, 5 h (Fig. S4).

periplasmic domain of Rsc1598, sequence (Q8XZ08 99-319 limits assumed): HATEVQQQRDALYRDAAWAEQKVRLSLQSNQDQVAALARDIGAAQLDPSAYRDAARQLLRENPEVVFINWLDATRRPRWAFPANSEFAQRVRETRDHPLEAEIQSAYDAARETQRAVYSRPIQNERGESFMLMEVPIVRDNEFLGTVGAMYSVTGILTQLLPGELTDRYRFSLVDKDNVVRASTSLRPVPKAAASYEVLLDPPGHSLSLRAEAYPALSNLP

What is called Kd is the concentration at which binding is half-saturated. As for `O=C(O)CC(O)(CC(=O)O)C(=O)O` [Citric acid, citric acid], the Kd in experiment [1] (Kd, Average of titrations, 25°C, pH 7.6) came out at 155 ± 80.7 µM; in experiment [1] (Kd, ITC single titration, ligand 4 mM, 25°C, 50 mM sodium phosphate buffer pH 7.6, protein 40 µM), 137 µM; in experiment [1] (Kd, ITC single titration, ligand 5 mM, 25°C, 50 mM sodium phosphate buffer pH 7.6, protein 40 µM) it was 84.5 µM; in experiment [1] (Kd, ITC single titration, ligand 6 mM, 25°C, 50 mM sodium phosphate buffer pH 7.6, protein 40 µM), 243 µM.
As to `O=CO` [Formic acid, formic acid], the Kd in experiment [1] (ITC single titration, ligand 5 mM, 25°C, 50 mM sodium phosphate buffer pH 7.6, protein 40 µM, read-out: Kd) is 71.5 µM; in experiment [1] (ITC single titration, ligand 6 mM, 25°C, 50 mM sodium phosphate buffer pH 7.6, protein 40 µM, read-out: Kd), 231 µM.
With `O=C(O)/C=C/C(=O)O` [Fumaric acid, fumaric acid], the Kd was 47 µM and 56.3 µM in experiment [1] (Kd); “smaller than that of malic acid” in experiment [1] (pH 7.6).
For `O=C(O)[C@@H]1CCC(O)=N1` [L-pyroglutamic acid], in experiment [2], the “Induction of hrpB expression by organic acids” value (“Induction … by organic acids” for short) is “induced high levels of hrpB expression”. In addition, in experiment [1] (Kd), the Kd was 41 µM and 43.2 µM and 194 µM.
With `O=C(O)CC(O)C(=O)O` (centres unmarked) [Malic acid, malic acid], in experiment [3], the “Induction of hrpB-lacZ expression in growing cells” value is given as “induced hrpB expression”. The “Induction … by organic acids” value in experiment [2] is on record as “induced high levels of hrpB expression”. For the same compound, the dissociation constant (Kd) in experiment [1] (Kd) is 68.4 µM and 64.3 µM and 89 µM and 65 µM.
For `O=C(O)C(=O)O` [Oxalic acid, oxalic acid], in experiment [1] (Kd), the Kd is 229 µM and 151 µM.
Regarding `O=C(O)CCC(=O)O` [Succinic acid, succinic acid], the “Induction … by organic acids” value in experiment [2] is given as “induced high levels of hrpB expression”. Moreover, the Kd in experiment [1] (Kd) was 29.5 µM and 190 µM.
Turning to `O=C(CO)[C@@H](O)[C@H](O)[C@H](O)CO` [fructose], the “Induction of hrpB expression by sugars” value in experiment [2] is “induced hrpB expression”.
Regarding `OC[C@H]1OC(O)[C@H](O)[C@@H](O)[C@@H]1O` (some centres unmarked) [glucose], the “Induction of hrpB expression by sugars” value in experiment [2] is given as “induced hrpB expression”.
With `OC[C@H]1O[C@@](CO)(O[C@H]2O[C@H](CO)[C@@H](O)[C@H](O)[C@H]2O)[C@@H](O)[C@@H]1O` [sucrose], the “Induction of hrpB-lacZ expression in growing cells” value in experiment [3] is “minimal induction”. In addition, in experiment [2], the “Induction of hrpB expression by sugars” value was “the most effective sugar”.

The values are drawn from article PMC11925246 (Journal of Bacteriology, 2025).
